Reference: patent publication US20260130933A1, “PHARMACEUTICAL COMPOSITION FOR PREVENTION OR TREATMENT OF NEPHROPATHY AND/OR DIABETES MELLITUS, COMPRISING ENAVOGLIFLOZIN” (DAEWOONG PHARMACEUTICAL CO., LTD., priority 2022, published 2026)

Assay: Example 1: phase 3 trial, enavogliflozin 0.3 mg once a day as monotherapy vs placebo for 24 weeks in patients with type 2 diabetes (HbA1c, FPG, C-peptide, body weight, lipids, blood pressure, HOMA, UACR, UGCR, adiponectin, leptin, safety)
Assay type: in vivo, human
Details: for Change from baseline in HOMA-IR, ANCOVA LS mean difference / Change from baseline in HOMA-β, ANCOVA LS mean difference / Change from baseline in UACR, ANCOVA LS mean difference / Change from baseline in UGCR, ANCOVA LS mean difference / Change from baseline in adiponectin, ANCOVA LS mean difference / Change from baseline in leptin, ANCOVA LS mean difference: 0.3 mg vs placebo
Method: When a subject voluntarily gave written consent to participate in this clinical trial, a screening test was conducted. […] However, when the administration of a hypoglycemic agent was interrupted before the clinical trial Visit 1 (screening), at least an 8-week washout period, including the discontinuation period, was required, and during this period, a stable diet and exercise program was followed. Naïve patients were screened without a separate washout period, and the criteria for naïve patients were defined as patients who had not been administered hypoglycemic agents within 24 weeks prior to the date of obtaining written consent. […] In addition, they were instructed to maintain regular exercise and dietary control starting from 8 weeks prior to screening without changing their daily life patterns during the clinical trial period.

[1] = Week 18, LOCF, full analysis set, 0.3 mg
[2] = Week 18, LOCF, full analysis set
[3] = Week 24, LOCF, full analysis set, 0.3 mg
[4] = Week 24, LOCF, full analysis set

OC[C@H]1O[C@@H](c2cc(Cc3ccc(C4CC4)cc3)c(Cl)c3c2CCO3)[C@H](O)[C@@H](O)[C@@H]1O [Enavogliflozin, (2S,3R,4R,5S,6R)-2-(7-chloro-6 (4-cyclopropylbenzyl)-2,3-dihydrobenzofuran-4-yl)-6-(hydroxymethyl)tetrahydro-2H-pyran-3,4,5-triol]
Change from baseline in HOMA-IR, Median [1]: −1.10 | Change from baseline in HOMA-β, ANCOVA LS mean (SE) [1]: 28.64 | Change from baseline in HOMA-β, Mean (SD) [1]: 23.65 | Change from baseline in HOMA-β, Median [1]: 5.95 | Change from baseline in UACR, ANCOVA LS mean (SE) [1]: -5.53 g/kg | Change from baseline in UACR, Mean (SD) [1]: -8720 mg/kg | Change from baseline in UACR, Median [1]: -0.75 g/kg | Change from baseline in UGCR, ANCOVA LS mean (SE) [1]: 51.70 mg/mg | Change from baseline in UGCR, Mean (SD) [1]: 50.96 mg/mg | Change from baseline in UGCR, Median [1]: 54.29 mg/mg | Change from baseline in adiponectin, ANCOVA LS mean (SE) [1]: 0.97 µg/mL | Change from baseline in adiponectin, Mean (SD) [1]: 0.83 µg/mL | Change from baseline in adiponectin, Median [1]: 0.61 µg/mL | Change from baseline in leptin, ANCOVA LS mean (SE) [1]: -2.70 ng/mL | Change from baseline in leptin, Mean (SD) [1]: -2.20 ng/mL | Change from baseline in leptin, Median [1]: -1.21 ng/mL | HOMA-IR, Mean (SD) [1]: 1.99 | HOMA-IR, Median [1]: 1.51 | HOMA-β, Mean (SD) [1]: 70.05 | HOMA-β, Median [1]: 43.85 | Leptin, Mean (SD) [1]: 8.96 ng/mL | Leptin, Median [1]: 6.05 ng/mL | UACR, Mean (SD) [1]: 19480 mg/kg | UACR, Median [1]: 10.50 g/kg | UGCR, Mean (SD) [1]: 52.38 mg/mg | UGCR, Median [1]: 54.51 mg/mg | Change from baseline in HOMA-IR, ANCOVA LS mean difference [2]: −1.49 | Change from baseline in HOMA-β, ANCOVA LS mean difference [2]: 22.40 | Change from baseline in UACR, ANCOVA LS mean difference [2]: -13.39 g/kg | Change from baseline in UGCR, ANCOVA LS mean difference [2]: 47.66 mg/mg | Change from baseline in adiponectin, ANCOVA LS mean difference [2]: 1.04 µg/mL | Change from baseline in leptin, ANCOVA LS mean difference [2]: -2.36 ng/mL | Adiponectin, Mean (SD) [3]: 9.07 µg/mL | Adiponectin, Median [3]: 7.57 µg/mL | Change from baseline in HOMA-IR, ANCOVA LS mean (SE) [3]: −1.57 | Change from baseline in HOMA-IR, Mean (SD) [3]: −1.52 | Change from baseline in HOMA-IR, Median [3]: −0.99 | Change from baseline in HOMA-β, ANCOVA LS mean (SE) [3]: 7.97 | Change from baseline in HOMA-β, Mean (SD) [3]: 8.24 | Change from baseline in HOMA-β, Median [3]: 6.10 | Change from baseline in UACR, ANCOVA LS mean (SE) [3]: -4.31 g/kg | Change from baseline in UACR, Mean (SD) [3]: -6750 mg/kg | Change from baseline in UACR, Median [3]: -0.15 g/kg | Change from baseline in UGCR, ANCOVA LS mean (SE) [3]: 49.76 mg/mg | Change from baseline in UGCR, Mean (SD) [3]: 48.97 mg/mg | Change from baseline in UGCR, Median [3]: 50.09 mg/mg | Change from baseline in adiponectin, ANCOVA LS mean (SE) [3]: 1.25 µg/mL | Change from baseline in adiponectin, Mean (SD) [3]: 1.28 µg/mL | Change from baseline in adiponectin, Median [3]: 1.08 µg/mL | Change from baseline in leptin, ANCOVA LS mean (SE) [3]: -2.36 ng/mL | Change from baseline in leptin, Mean (SD) [3]: -2.07 ng/mL | Change from baseline in leptin, Median [3]: -0.84 ng/mL | HOMA-IR, Mean (SD) [3]: 1.94 | HOMA-IR, Median [3]: 1.58 | HOMA-β, Mean (SD) [3]: 54.64 | HOMA-β, Median [3]: 46.65 | Leptin, Mean (SD) [3]: 9.09 ng/mL | Leptin, Median [3]: 6.89 ng/mL | UACR, Mean (SD) [3]: 21440 mg/kg | UACR, Median [3]: 9.00 g/kg | UGCR, Mean (SD) [3]: 50.40 mg/mg | UGCR, Median [3]: 50.80 mg/mg | Change from baseline in HOMA-IR, ANCOVA LS mean difference [4]: −1.94 | Change from baseline in HOMA-β, ANCOVA LS mean difference [4]: 5.88 | Change from baseline in UACR, ANCOVA LS mean difference [4]: -13.92 g/kg | Change from baseline in UGCR, ANCOVA LS mean difference [4]: 47.36 mg/mg | Change from baseline in adiponectin, ANCOVA LS mean difference [4]: 0.98 µg/mL | Change from baseline in leptin, ANCOVA LS mean difference [4]: -2.99 ng/mL | Body weight, Mean (week 6): 66.81 kg | Diastolic blood pressure, Mean (week 6): 73.81 mmHg | FPG change from baseline, LS mean (SE) (week 6): −27.78(2.47) mg/dL | FPG change from baseline, Mean (SD) (week 6): −25.86(20.19) mg/dL | FPG, Mean (SD) (week 6): 115.19(14.55) mg/dL | HDL-C change from baseline, LS mean (week 6): 2.40 mg/dL | HDL-C change from baseline, Mean (week 6): 2.07 mg/dL | HDL-C, Mean (week 6): 53.79 mg/dL | HbA1c change from baseline, LS mean (SE) (week 6): −0.67(0.05) % p | HbA1c change from baseline, Mean (SD) (week 6): −0.63(0.39) % p | HbA1c, Mean (SD) (week 6): 7.01(0.59) % | LDL-C change from baseline, LS mean (week 6): 1.23 mg/dL | LDL-C change from baseline, Mean (week 6): 1.55 mg/dL | LDL-C, Mean (week 6): 96.18 mg/dL | Subjects achieving HbA1c target of <6.5% (week 6): 12(14.81) % | Subjects achieving HbA1c target of <7% (week 6): 40(49.38) % | Subjects achieving therapeutic glycemic response (HbA1c change >0.5% or HbA1c<7%) (week 6): 61(75.31) % | Systolic blood pressure, Mean (week 6): 123.32 mmHg | body weight change from baseline, LS mean (week 6): -2.03 kg | body weight change from baseline, Mean (week 6): -2.05 kg | diastolic blood pressure change from baseline, LS mean (week 6): −2.99 mmHg | diastolic blood pressure change from baseline, Mean (week 6): −2.65 mmHg
